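Where inhibition never reached the appropriate level, the endpoint shown equals the highest concentration tested. Otherwise, values were interpolated linearly from a five-concentration, 48-hour dose response in 96-well plates. Here, GI50 denotes the concentration required for 50% inhibition of growth. TGI marks complete inhibition of growth.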
Columns and labels:
Experiment in all cases: NCI-60 cell line screen, 48 h
786-0 renal = tested on: 786-0 renal
A498 renal = tested on: A498 renal
A549 NSCLC = tested on: A549 NSCLC
ACHN renal = tested on: ACHN renal
BT-549 breast = tested on: BT-549 breast
CAKI-1 renal = tested on: CAKI-1 renal
CCRF-CEM leukemia = tested on: CCRF-CEM leukemia
COLO 205 colon = tested on: COLO 205 colon
DU-145 prostate = tested on: DU-145 prostate
EKVX NSCLC = tested on: EKVX NSCLC
HCC-2998 colon = tested on: HCC-2998 colon
HCT-116 colon = tested on: HCT-116 colon
HCT-15 colon = tested on: HCT-15 colon
HL-60(TB) leukemia = tested on: HL-60(TB) leukemia
HOP-62 NSCLC = tested on: HOP-62 NSCLC
HOP-92 NSCLC = tested on: HOP-92 NSCLC
HS 578T breast = tested on: HS 578T breast
HT29 colon = tested on: HT29 colon
IGROV1 ovarian = tested on: IGROV1 ovarian
K-562 leukemia = tested on: K-562 leukemia
KM12 colon = tested on: KM12 colon
LOX IMVI melanoma = tested on: LOX IMVI melanoma
M14 melanoma = tested on: M14 melanoma
MALME-3M melanoma = tested on: MALME-3M melanoma
MCF7 breast = tested on: MCF7 breast
MDA-MB-231 breast = tested on: MDA-MB-231 breast
MOLT-4 leukemia = tested on: MOLT-4 leukemia
NCI-H226 lung = tested on: NCI-H226 lung
NCI-H23 lung = tested on: NCI-H23 lung
NCI-H460 lung = tested on: NCI-H460 lung
NCI-H522 lung = tested on: NCI-H522 lung
NCI/ADR-RES ovarian = tested on: NCI/ADR-RES ovarian
OVCAR-3 ovarian = tested on: OVCAR-3 ovarian
OVCAR-4 ovarian = tested on: OVCAR-4 ovarian
OVCAR-5 ovarian = tested on: OVCAR-5 ovarian
OVCAR-8 ovarian = tested on: OVCAR-8 ovarian
PC-3 prostate = tested on: PC-3 prostate
RPMI-8226 leukemia = tested on: RPMI-8226 leukemia
RXF 393 renal = tested on: RXF 393 renal
SF-268 CNS = tested on: SF-268 CNS
SF-295 CNS = tested on: SF-295 CNS
SF-539 CNS = tested on: SF-539 CNS
SK-MEL-2 melanoma = tested on: SK-MEL-2 melanoma
SK-MEL-28 melanoma = tested on: SK-MEL-28 melanoma
SK-MEL-5 melanoma = tested on: SK-MEL-5 melanoma
SK-OV-3 ovarian = tested on: SK-OV-3 ovarian
SN12C renal = tested on: SN12C renal
SNB-19 CNS = tested on: SNB-19 CNS
SNB-75 CNS = tested on: SNB-75 CNS
SR leukemia = tested on: SR leukemia
SW-620 colon = tested on: SW-620 colon
T-47D breast = tested on: T-47D breast
TK-10 renal = tested on: TK-10 renal
U251 CNS = tested on: U251 CNS
UACC-257 melanoma = tested on: UACC-257 melanoma
UACC-62 melanoma = tested on: UACC-62 melanoma
UO-31 renal = tested on: UO-31 renal

CCOc1cc(/C=N\NC(=O)N/N=C/c2ccc(O)c(OCC)c2)ccc1O
GI50 (786-0 renal): 7.68 µM
TGI (786-0 renal): > 100 µM
GI50 (A498 renal): 5.68 µM
TGI (A498 renal): 61.3 µM
GI50 (A549 NSCLC): 6.95 µM
TGI (A549 NSCLC): > 100 µM
GI50 (ACHN renal): 7.99 µM
TGI (ACHN renal): > 100 µM
GI50 (BT-549 breast): 24.5 µM
TGI (BT-549 breast): > 100 µM
GI50 (CAKI-1 renal): 3.06 µM
TGI (CAKI-1 renal): > 100 µM
GI50 (CCRF-CEM leukemia): 2510 nM
TGI (CCRF-CEM leukemia): > 100 µM
GI50 (COLO 205 colon): 3.85 µM
TGI (COLO 205 colon): 26.6 µM
GI50 (DU-145 prostate): 2210 nM
TGI (DU-145 prostate): > 100 µM
GI50 (EKVX NSCLC): 4.38 µM
TGI (EKVX NSCLC): > 100 µM
GI50 (HCC-2998 colon): 2970 nM
TGI (HCC-2998 colon): > 100 µM
GI50 (HCT-116 colon): 866 nM
TGI (HCT-116 colon): > 100 µM
GI50 (HCT-15 colon): 3.1 µM
TGI (HCT-15 colon): > 100 µM
GI50 (HL-60(TB) leukemia): 2500 nM
TGI (HL-60(TB) leukemia): > 39.2 µM
TGI (HOP-62 NSCLC): > 100 µM
GI50 (HOP-92 NSCLC): 87.5 µM
TGI (HOP-92 NSCLC): > 100 µM
GI50 (HS 578T breast): 1160 nM
TGI (HS 578T breast): > 100 µM
GI50 (HT29 colon): 3.38 µM
TGI (HT29 colon): > 100 µM
GI50 (IGROV1 ovarian): 4.71 µM
TGI (IGROV1 ovarian): > 100 µM
GI50 (K-562 leukemia): 441 nM
TGI (K-562 leukemia): > 100 µM
GI50 (KM12 colon): 1010 nM
TGI (KM12 colon): > 100 µM
GI50 (LOX IMVI melanoma): 2450 nM
TGI (LOX IMVI melanoma): > 100 µM
GI50 (M14 melanoma): 1630 nM
TGI (M14 melanoma): > 100 µM
GI50 (MALME-3M melanoma): 973 nM
TGI (MALME-3M melanoma): > 100 µM
GI50 (MCF7 breast): 815 nM
TGI (MCF7 breast): > 100 µM
GI50 (MDA-MB-231 breast): 6.45 µM
TGI (MDA-MB-231 breast): > 100 µM
GI50 (MOLT-4 leukemia): 3.41 µM
TGI (MOLT-4 leukemia): > 76.8 µM
GI50 (NCI-H226 lung): > 100 µM
TGI (NCI-H226 lung): > 100 µM
GI50 (NCI-H23 lung): 4.22 µM
TGI (NCI-H23 lung): > 100 µM
GI50 (NCI-H460 lung): 2880 nM
TGI (NCI-H460 lung): > 67.7 µM
GI50 (NCI-H522 lung): 281 nM
TGI (NCI-H522 lung): 1490 nM
GI50 (NCI/ADR-RES ovarian): 3.47 µM
TGI (NCI/ADR-RES ovarian): > 100 µM
GI50 (OVCAR-3 ovarian): 308 nM
TGI (OVCAR-3 ovarian): 1080 nM
GI50 (OVCAR-4 ovarian): 54.3 µM
TGI (OVCAR-4 ovarian): > 100 µM
GI50 (OVCAR-5 ovarian): 59.3 µM
TGI (OVCAR-5 ovarian): > 100 µM
GI50 (OVCAR-8 ovarian): 4.26 µM
TGI (OVCAR-8 ovarian): > 100 µM
GI50 (PC-3 prostate): 3.51 µM
TGI (PC-3 prostate): > 100 µM
GI50 (RPMI-8226 leukemia): 4.79 µM
TGI (RPMI-8226 leukemia): > 53 µM
GI50 (RXF 393 renal): 1760 nM
TGI (RXF 393 renal): 7.19 µM
GI50 (SF-268 CNS): 5.69 µM
TGI (SF-268 CNS): > 100 µM
GI50 (SF-295 CNS): 2250 nM
TGI (SF-295 CNS): > 100 µM
GI50 (SF-539 CNS): 1420 nM
TGI (SF-539 CNS): > 100 µM
GI50 (SK-MEL-2 melanoma): 1550 nM
TGI (SK-MEL-2 melanoma): > 100 µM
GI50 (SK-MEL-28 melanoma): 10.3 µM
TGI (SK-MEL-28 melanoma): > 100 µM
GI50 (SK-MEL-5 melanoma): 1050 nM
TGI (SK-MEL-5 melanoma): 18 µM
GI50 (SK-OV-3 ovarian): 1250 nM
TGI (SK-OV-3 ovarian): > 100 µM
GI50 (SN12C renal): 7 µM
TGI (SN12C renal): > 100 µM
GI50 (SNB-19 CNS): 4 µM
TGI (SNB-19 CNS): > 100 µM
GI50 (SNB-75 CNS): 2760 nM
TGI (SNB-75 CNS): > 100 µM
GI50 (SR leukemia): 354 nM
TGI (SR leukemia): > 39.1 µM
GI50 (SW-620 colon): 959 nM
TGI (SW-620 colon): > 100 µM
GI50 (T-47D breast): 6.49 µM
TGI (T-47D breast): > 100 µM
GI50 (TK-10 renal): > 29.1 µM
TGI (TK-10 renal): > 100 µM
GI50 (U251 CNS): 1750 nM
TGI (U251 CNS): > 100 µM
GI50 (UACC-257 melanoma): 72.1 µM
TGI (UACC-257 melanoma): > 100 µM
GI50 (UACC-62 melanoma): 1790 nM
TGI (UACC-62 melanoma): > 100 µM
GI50 (UO-31 renal): 8.47 µM
TGI (UO-31 renal): > 100 µM

Source: PubChem BioAssay (NCI)
